# Data as given in article PMC3663048 (Journal of medicinal chemistry, 2011).
# Positions count from the first letter of the chain named.
# Key:
# C22V Nek2 = molecular target: T1, C22V Nek2 (Homo sapiens, UniProt P51955, C22V); assay: In vitro kinase assay with C22V Nek2; type: biochemical; conditions: C22V mutant
# T1 sequence (P51955 1-445 C22V): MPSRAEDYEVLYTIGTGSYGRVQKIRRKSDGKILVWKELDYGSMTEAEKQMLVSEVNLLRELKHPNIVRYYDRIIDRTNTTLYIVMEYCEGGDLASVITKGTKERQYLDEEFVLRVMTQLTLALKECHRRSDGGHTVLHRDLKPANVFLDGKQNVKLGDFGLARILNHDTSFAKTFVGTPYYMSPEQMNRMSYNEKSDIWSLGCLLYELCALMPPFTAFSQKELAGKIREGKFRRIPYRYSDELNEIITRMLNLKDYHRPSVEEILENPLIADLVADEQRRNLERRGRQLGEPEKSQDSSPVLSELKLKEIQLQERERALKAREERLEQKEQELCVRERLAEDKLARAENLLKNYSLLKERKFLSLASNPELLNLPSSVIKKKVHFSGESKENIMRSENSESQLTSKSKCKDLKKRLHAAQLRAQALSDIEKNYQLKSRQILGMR
# Nek2 = molecular target: T2, Nek2 (Homo sapiens, UniProt P51955); assay: In vitro kinase assay with WT Nek2; conditions: for Potency against WT Nek2 (dose-response): WT Nek2, in vitro kinase assay; for inhibition at 5 µM: read-out: Percent inhibition of Nek2 kinase activity; for Percent inhibition of Nek2 kinase activity: 5 μM, 30 min pre-incubation
# T2 sequence (P51955 1-445): T1 sequence (P51955 1-445 C22V) with V22C
# [1] = molecular target: T3, WT Nek2 kinase domain (aa 1-271) (Homo sapiens, UniProt P51955); assay: Mass spectrometry-based covalent binding assay, WT Nek2 kinase domain; conditions: ten-fold molar excess of compound, physiological pH
# T3 sequence (P51955 1-271): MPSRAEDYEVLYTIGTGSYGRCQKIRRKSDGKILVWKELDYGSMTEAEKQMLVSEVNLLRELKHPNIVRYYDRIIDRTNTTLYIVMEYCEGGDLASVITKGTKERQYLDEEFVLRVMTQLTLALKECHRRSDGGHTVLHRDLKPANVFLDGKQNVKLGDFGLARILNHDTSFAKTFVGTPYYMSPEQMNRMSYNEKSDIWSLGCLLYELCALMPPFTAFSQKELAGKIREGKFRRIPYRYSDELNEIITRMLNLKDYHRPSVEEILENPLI
# [2] = system: monastrol-arrested A549 cells; assay: Mitotic exit of monastrol-arrested A549 cells; type: cell-based, human; conditions: 45 min; for Phospho-Ser10 histone H3 staining (mitotic marker): 5 μM
# endogenous Nek2 = molecular target: T4, endogenous Nek2 (Homo sapiens, UniProt P51955); assay: Immunoprecipitation kinase assay of endogenous Nek2 from treated A549 cells; type: cell-based; conditions: A549, read-out: Inhibition of cellular Nek2
# T4 sequence (P51955 1-445): T1 sequence (P51955 1-445 C22V) with V22C
structure (smiles),measurement,setting,value
"O=C1Nc2ccc(C(=O)CCl)cc2/C1=C/c1ccc[nH]1 [compound 2, (Z)-3-((1H-Pyrrol-2-yl)methylene)-5-(2-chloroacetyl)indolin-2-one]",Potency against C22V Nek2 compared to WT,C22V Nek2,significantly less potent
same,Potency against WT Nek2 (dose-response),Nek2,submicromolar
same,inhibition at 5 µM,Nek2,> 80%
same,Alkylation of WT Nek2 kinase domain (ESI-MS),[1],alkylated WT Nek2 at a single site
"C=CC(=O)Nc1ccc2c(c1)/C(=C/c1ccc[nH]1)C(=O)N2 [compound 7, (Z)-N-(3-((1H-Pyrrol-2-yl)methylene)-2-oxoindolin-5-yl)acrylamide]",Percent inhibition of Nek2 kinase activity,Nek2,ineffective
"C#CC(=O)Nc1ccc2c(c1)/C(=C/c1ccc[nH]1)C(=O)N2 [compound 8, (Z)-N-(3-((1H-Pyrrol-2-yl)methylene)-2-oxoindolin-5-yl)propiolamide]",Potency against C22V Nek2 compared to WT,C22V Nek2,significantly less potent
same,Percent inhibition of Nek2 kinase activity,Nek2,nearly complete inhibition
same,Potency against WT Nek2 (dose-response),Nek2,submicromolar
same,inhibition at 5 µM,Nek2,> 80%
same,Alkylation of WT Nek2 kinase domain (ESI-MS),[1],alkylated WT Nek2 at a single site
"CCc1nc(C)c(/C=C2\C(=O)Nc3ccc(C(=O)CCl)cc32)[nH]1 [compound 11, (Z)-5-(2-Chloroacetyl)-3-((2-ethyl-4-methyl-1H-imidazol-5-yl)methylene)indolin-2-one]",Alkylation of WT Nek2 kinase domain (ESI-MS),[1],reacted stoichiometrically
"C#CC(=O)Nc1ccc2c(c1)/C(=C/c1[nH]cnc1C)C(=O)N2 [compound 15, (Z)-N-(3-((4-Methyl-1H-imidazol-5-yl)methylene)-2-oxoindolin-5-yl)propiolamide]",Phospho-Ser10 histone H3 staining (mitotic marker),[2],devoid of this mitotic marker
same,% mitotic exit (5 μM),[2]; immunofluorescence,80%
"CC#CC(=O)Nc1ccc2c(c1)/C(=C/c1[nH]c(CC)nc1C)C(=O)N2 [compound 18, (Z)-N-(3-((2-Ethyl-4-methyl-1H-imidazol-5-yl)methylene)-2-oxoindolin-5-yl)but-2-ynamide]",IC50,Nek2,~20 µM
same,inhibition at 5 µM,endogenous Nek2,10 to 25%
"O=C1NC(=NCc2cccs2)S/C1=C\c1ccc2ncccc2c1 [compound 19, reference compound]",Phospho-Ser10 histone H3 staining (mitotic marker),[2],devoid of this mitotic marker
